# Data taken from patent publication US10035791B2, “Bicyclic compound and pharmaceutical composition thereof for treating stroke and use thereof” (China Medical University, priority 2016, dated 2018).
# Legend:
# [1] = tested on: NSCs; assay: Proliferation marker expressions (BrdU, ki-67) of the NSCs, immunofluorescence staining; type: cell-based, mice; details: 0.1, 1, 10 μM for 16 hours, especially 1 μM
# Description: To prepare the NSCs, after removal of meninges, subventricular zones (SVZ) of lateral ventricles from adult mice brain (4 week-of-age) are aseptically isolated and dissociated as previously described (J Cell Sci 2006; 119, 4467-4474). All steps are operated under sterile conditions. Then, neurosphere culture are prepared in neurobasal (NB) medium (Gibco BRL) supplemented with 2% of B27 (Gibco BRL), 2 mM of L-glutamine (PAN Biotech), 100 U/ml of penicillin/[…] of streptomycin (Gibco BRL). For maintenance and expansion of the cultures, the NB/B27 is further supplemented with 2 μg/mL of heparin (Sigma), 20 ng/mL of FGF-2 (R&D Systems) and 20 ng/mL of EGF (R&D Systems). […] For clonal/low density cultures, primary neurospheres grown at high density are dissociated into a single cell suspension and reseeded into 96-well plates at 100 cells per ml of media and the number of newly formed neurospheres is counted after 7 days. In addition, the Bmi-1 expressions, SOX2 expressions, Nestin expressions, Musashi-1 expressions, BrdU expressions and ki-67 expressions of the newly formed neurospheres are determined by the immunofluorescence staining.
# To measure the effect of the administration of the Compound 1 on proliferation marker expressions of the NSCs, the NSCs treated with the Compound 1 are detected by the immunofluorescence staining. […]
# [2] = tested on: NSCs; assay: Proliferation index (PI) measurement of CFSE-labelled NSCs by flow cytometry; type: cell-based, mice; details: 1 μM for 16 hours; control group 4.37, FIG. 11C
# Description: (§1) To prepare the NSCs, after removal of meninges, subventricular zones (SVZ) of lateral ventricles from adult mice brain (4 week-of-age) are aseptically isolated and dissociated as previously described (J Cell Sci 2006; 119, 4467-4474). All steps are operated under sterile conditions. Then, neurosphere culture are prepared in neurobasal (NB) medium (Gibco BRL) supplemented with 2% of B27 (Gibco BRL), 2 mM of L-glutamine (PAN Biotech), 100 U/ml of penicillin/0.1 mg/L of streptomycin (Gibco BRL). For maintenance and expansion of the cultures, the NB/B27 is further supplemented with 2 μg/mL of heparin (Sigma), 20 ng/mL of FGF-2 (R&D Systems) and 20 ng/mL of EGF (R&D Systems). Neurosphere cultures are maintained at 37° C. in a humidified incubator with 5% CO2. For clonal/low density cultures, primary neurospheres grown at high density are dissociated into a single cell suspension and reseeded into 96-well plates at 100 cells per ml of media and the number of newly formed neurospheres is counted after 7 days. In addition, the Bmi-1 expressions, SOX2 expressions, Nestin expressions, Musashi-1 expressions, BrdU expressions and ki-67 expressions of the newly formed neurospheres are determined by the immunofluorescence staining.
# To analyze whet her he Compound 1 modulates the NSCs proliferation, this example examines the effect of the HIF-1α-Bmi-1 pathway on the self-renewal of the neurosphere. […]
# [3] = tested on: ischemic rats; assay: Locomotor activity test; type: in vivo, Sprague-Dawley (SD) rats; details: 1 mg/kg, vs control group, FIGS. 19B to 19D
# From the text: (§2) The ischemic rats are induced by an ischemia-reperfusion model to simulate transient focal cerebral ischemia in rats. Test animals are male Sprague-Dawley (SD) rats weighing 250-300 g. The rats are anesthetized with chloral hydrate (0.4 g/kg IP) and subjected to cerebral ischemia. The ischemia-reperfusion model is induced by ligations of bilateral common carotid arteries (CCAs) and a right middle cerebral artery (MCA). The bilateral CCAs are clamped with non-traumatic arterial clips, and the right MCA is ligated with an 10-0 nylon suture. After 90 minutes ischemia, the suture on the MCA and the arterial clips on CCAs are removed to allow reperfusion. Core body temperature is monitored with a thermistor probe (Hewlett-Packard Model 21090A probe, Hewlett-Packard Company, Andover, Mass.), and maintained at 37° C. with a heating pad during anesthesia. […]
# The locomotor activity test is measured for about 2 hours using VersaMax Animal Activity Monitoring System (Accuscan Instruments), which contains 16 horizontal infrared sensors and 8 vertical infrared sensors. The vertical sensors are situated 10 cm above the chamber floor and the locomotor activity is quantified by a number of a beam broken by the rat's movement in the chamber. Three vertical-movement parameters are measured: (i) vertical activity (ii) vertical time (iii) number of vertical movements by the manufacturer's instruction.
# [4] = tested on: ischemic rats; assay: Body swing test; type: in vivo, Sprague-Dawley (SD) rats; details: 1 mg/kg, vs control group; 1, 7, 14 and 28 days after the injection, FIG. 19A
# From the text: as §2, with “anesthesia. After recovery from anesthesia, rat body temperature is maintained at 37° C. with a heat lamp.” for “anesthesia.”
# The body swing test is used to assess body asymmetry after MCA ligation. Initially, the ischemic rats are suspended by their tail 10 cm above the cage floor, and lateral body movements are recorded. Specifically, the frequency with which the initial head swing contra-lateral to the ischemic side is counted in twenty consecutive tests and is normalized to the baseline score.
# [5] = tested on: NSCs; assay: Neurosphere self-renewal assay of the NSCs; type: cell-based, mice; details: 0.1, 1, 10 μM for 16 hours vs control group, especially 1 μM
# Description: To determine whether the HIF-1α-Bmi-1 pathway regulates the proliferation of the NSCs a neurosphere self-renewal assay is performed in this example. In the neurosphere self-renewal assay, the NSCs are cultured in non-adherent cultures to form neurospheres for examining the effect of the HIF-1α-Bmi-1 pathway on the self-renewal of the neurosphere.
# as §1
# In another example, the NSCs are treated with different dosages of the Compound 1 (0.1 μM, 1 μM and 10 μM) for 16 hours, wherein the NSCs treated with 1 μM of the Compound 1 are further transduced with the LV-Bmi-1-sh or LV-HIF-1α-sh respectively. Then the NSCs are cultured in the neurosphere culture to observe the frequency of the neurosphere formation, the self-renewal potential of the NSCs and the neurosphere size. […]
compound,measurement,setting,value
COC(=O)C1=CO[C@@H](O)[C@@H]2C(COC(=O)[C@@H](N)Cc3ccccc3)=CC[C@H]12 [Compound 1],proportion of the BrdU+ cells in the neurosphere culture,[1]; FIG. 12B,increases the proportion
same,proportion of the ki-67+ cells in the neurosphere culture,[1]; FIG. 12C,increases the proportion
same,proliferation index (PI) of the NSCs,[2],6.77
same,"locomotor activity (vertical activity, vertical time, number of vertical movements)",[3],significant improvement
same,neurological recovery in the body swing test,[4],much more neurological recovery
same,frequency of the neurosphere formation,[5]; FIG. 11F,significantly higher frequency of the neurosphere formation
same,self-renewal potential of the NSCs,[5]; FIG. 11G,more self-renewal potential
same,neurosphere size,[5]; FIG. 11H,larger neurosphere size
